# Tests used:
# BTK = BTK (Homo sapiens, UniProt Q06187); assay: kinase Express Screen; type: biochemical
# Method: (§1) Kinase Remaining activity
# (§2) Table S9. 9-ME-1 Kinase Screen
# (§3) Activity of panel of human kinases following treatment with 1 µM (2R, 3S)-7. Dundee MRC-PPU Express Screen
# (§4) (http://www.kinase-screen.mrc.ac.uk/services/express-screen)
# CAMK1 = CAMK1 (Homo sapiens, UniProt Q14012); assay: kinase Express Screen; type: biochemical
# Method: as §1, §2, §3, §4
# CAMKKb = CAMKKb (Homo sapiens, UniProt Q96RR4); assay: kinase Express Screen; type: biochemical
# Chain of CAMKKb (Q96RR4 whole entry): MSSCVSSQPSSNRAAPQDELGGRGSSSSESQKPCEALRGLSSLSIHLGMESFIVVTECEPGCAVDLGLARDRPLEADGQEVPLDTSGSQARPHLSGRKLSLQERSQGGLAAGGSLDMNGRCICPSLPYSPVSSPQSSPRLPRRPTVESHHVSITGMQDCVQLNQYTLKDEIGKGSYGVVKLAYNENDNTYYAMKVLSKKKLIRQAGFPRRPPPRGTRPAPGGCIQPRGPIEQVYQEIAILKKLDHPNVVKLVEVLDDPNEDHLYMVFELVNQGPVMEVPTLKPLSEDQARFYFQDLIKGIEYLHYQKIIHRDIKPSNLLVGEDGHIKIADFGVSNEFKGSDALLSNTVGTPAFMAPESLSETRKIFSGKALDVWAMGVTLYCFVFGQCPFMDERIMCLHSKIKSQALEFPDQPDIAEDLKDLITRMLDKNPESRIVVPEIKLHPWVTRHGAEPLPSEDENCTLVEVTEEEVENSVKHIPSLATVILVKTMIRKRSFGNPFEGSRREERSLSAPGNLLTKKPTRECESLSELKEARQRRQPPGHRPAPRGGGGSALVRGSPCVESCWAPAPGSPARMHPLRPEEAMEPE
# Method: as §1, §2, §3, §4
# CHK2 = CHK2 (Homo sapiens, UniProt O96017); assay: kinase Express Screen; type: biochemical
# Method: as §1, §2, §3, §4
# CK1δ = CK1δ (Homo sapiens, UniProt P48730); assay: kinase Express Screen; type: biochemical
# Method: as §1, §2, §3, §4
# CK2 = CK2 (Homo sapiens, UniProt P68400); assay: kinase Express Screen; type: biochemical
# Method: as §1, §2, §3, §4
# DYRK1A = DYRK1A (Homo sapiens, UniProt Q13627); assay: kinase Express Screen; type: biochemical
# Method: as §1, §2, §3, §4
# EF2K = EF2K (Homo sapiens, UniProt O00418); assay: kinase Express Screen; type: biochemical
# Method: as §1, §2, §3, §4
# EPH-A2 = EPH-A2 (Homo sapiens, UniProt P29317); assay: kinase Express Screen; type: biochemical
# Method: as §1, §2, §3, §4
# GSK3b = GSK3b (Homo sapiens, UniProt P49841); assay: kinase Express Screen; type: biochemical
# Method: as §1, §2, §3, §4
# IRAK4 = IRAK4 (Homo sapiens, UniProt Q9NWZ3); assay: kinase Express Screen; type: biochemical
# Method: as §1, §2, §3, §4
# JAK3 = JAK3 (Homo sapiens, UniProt P52333); assay: kinase Express Screen; type: biochemical
# Method: as §1, §2, §3, §4
# JNK1 = JNK1 (Homo sapiens, UniProt P45983); assay: kinase Express Screen; type: biochemical
# Method: as §1, §2, §3, §4
# MARK3 = MARK3 (Homo sapiens, UniProt P27448); assay: kinase Express Screen; type: biochemical
# Method: as §1, §2, §3, §4
# MSK1 = MSK1 (Homo sapiens, UniProt O75582); assay: kinase Express Screen; type: biochemical
# Method: as §1, §2, §3, §4
# MST2 = MST2 (Homo sapiens, UniProt Q13188); assay: kinase Express Screen; type: biochemical
# Method: as §1, §2, §3, §4
# NEK6 = NEK6 (Homo sapiens, UniProt Q9HC98); assay: kinase Express Screen; type: biochemical
# Method: as §1, §2, §3, §4
# PDK1 = PDK1 (Homo sapiens, UniProt O15530); assay: kinase Express Screen; type: biochemical
# Method: as §1, §2, §3, §4
# PIM1 = PIM1 (Homo sapiens, UniProt P11309); assay: kinase Express Screen; type: biochemical
# Chain of PIM1 (P11309 whole entry): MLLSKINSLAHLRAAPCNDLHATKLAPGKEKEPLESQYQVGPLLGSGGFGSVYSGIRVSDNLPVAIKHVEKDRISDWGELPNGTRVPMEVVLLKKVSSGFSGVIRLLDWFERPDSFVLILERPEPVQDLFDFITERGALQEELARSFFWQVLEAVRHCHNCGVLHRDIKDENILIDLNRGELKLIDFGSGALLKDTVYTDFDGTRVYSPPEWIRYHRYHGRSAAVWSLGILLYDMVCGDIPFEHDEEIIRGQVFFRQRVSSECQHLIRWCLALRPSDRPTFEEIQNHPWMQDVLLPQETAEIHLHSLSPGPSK
# Method: as §1, §2, §3, §4
# PKCa = PKCa (Homo sapiens, UniProt P17252); assay: kinase Express Screen; type: biochemical
# Method: as §1, §2, §3, §4
# PKD1 = PKD1 (Homo sapiens, UniProt Q15139); assay: kinase Express Screen; type: biochemical
# Chain of PKD1 (Q15139 whole entry): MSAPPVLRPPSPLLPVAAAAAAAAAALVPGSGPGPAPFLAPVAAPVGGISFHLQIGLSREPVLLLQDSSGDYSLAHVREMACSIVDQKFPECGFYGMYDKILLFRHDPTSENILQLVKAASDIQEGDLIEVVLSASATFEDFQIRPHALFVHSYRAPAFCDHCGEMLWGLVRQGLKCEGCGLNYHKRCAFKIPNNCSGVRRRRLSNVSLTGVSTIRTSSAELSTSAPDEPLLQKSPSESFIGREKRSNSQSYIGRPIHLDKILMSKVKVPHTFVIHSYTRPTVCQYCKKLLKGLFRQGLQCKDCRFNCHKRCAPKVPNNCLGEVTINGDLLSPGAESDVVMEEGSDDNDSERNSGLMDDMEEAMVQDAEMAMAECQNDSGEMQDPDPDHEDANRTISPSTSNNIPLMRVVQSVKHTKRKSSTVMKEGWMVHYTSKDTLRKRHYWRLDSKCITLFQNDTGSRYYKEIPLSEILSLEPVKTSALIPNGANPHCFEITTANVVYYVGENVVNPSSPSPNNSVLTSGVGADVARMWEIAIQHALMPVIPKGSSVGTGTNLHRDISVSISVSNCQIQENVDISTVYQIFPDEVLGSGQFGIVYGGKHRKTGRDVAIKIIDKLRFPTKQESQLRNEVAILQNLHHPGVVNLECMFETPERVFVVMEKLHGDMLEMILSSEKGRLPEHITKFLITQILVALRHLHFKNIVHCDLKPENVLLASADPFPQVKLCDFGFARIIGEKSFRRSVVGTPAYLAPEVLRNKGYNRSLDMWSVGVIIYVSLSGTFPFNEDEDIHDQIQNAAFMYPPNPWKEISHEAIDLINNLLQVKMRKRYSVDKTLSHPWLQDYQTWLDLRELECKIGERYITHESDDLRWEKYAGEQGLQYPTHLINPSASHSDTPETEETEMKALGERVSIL
# Method: as §1, §2, §3, §4
# PLK1 = PLK1 (Homo sapiens, UniProt P53350); assay: kinase Express Screen; type: biochemical
# Method: as §1, §2, §3, §4
# PRK2 = PRK2 (Homo sapiens, UniProt Q16513); assay: kinase Express Screen; type: biochemical
# Chain of PRK2 (Q16513 whole entry): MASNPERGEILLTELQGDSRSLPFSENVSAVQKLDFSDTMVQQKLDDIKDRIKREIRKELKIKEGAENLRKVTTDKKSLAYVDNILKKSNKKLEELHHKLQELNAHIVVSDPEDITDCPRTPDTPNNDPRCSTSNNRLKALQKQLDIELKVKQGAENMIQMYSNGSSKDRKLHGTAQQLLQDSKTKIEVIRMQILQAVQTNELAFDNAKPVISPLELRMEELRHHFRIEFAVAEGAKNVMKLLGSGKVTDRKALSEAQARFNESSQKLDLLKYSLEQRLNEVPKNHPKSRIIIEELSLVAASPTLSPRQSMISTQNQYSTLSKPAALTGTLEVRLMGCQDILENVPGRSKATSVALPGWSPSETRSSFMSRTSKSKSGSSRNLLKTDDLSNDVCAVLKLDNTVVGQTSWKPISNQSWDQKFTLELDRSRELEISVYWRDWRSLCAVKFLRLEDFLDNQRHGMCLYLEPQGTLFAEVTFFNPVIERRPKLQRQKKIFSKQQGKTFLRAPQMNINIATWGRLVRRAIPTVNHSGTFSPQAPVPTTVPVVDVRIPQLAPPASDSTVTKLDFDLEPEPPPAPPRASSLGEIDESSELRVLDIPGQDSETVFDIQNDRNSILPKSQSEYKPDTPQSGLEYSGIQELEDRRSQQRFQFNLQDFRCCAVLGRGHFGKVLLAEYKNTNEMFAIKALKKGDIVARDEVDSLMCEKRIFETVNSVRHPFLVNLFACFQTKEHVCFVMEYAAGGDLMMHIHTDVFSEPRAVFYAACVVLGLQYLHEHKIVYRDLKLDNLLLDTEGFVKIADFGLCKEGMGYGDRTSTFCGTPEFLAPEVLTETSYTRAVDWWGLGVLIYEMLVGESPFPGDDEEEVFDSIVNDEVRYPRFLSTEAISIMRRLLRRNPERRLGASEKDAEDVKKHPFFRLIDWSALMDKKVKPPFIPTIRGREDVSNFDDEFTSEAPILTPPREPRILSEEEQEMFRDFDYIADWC
# Method: as §1, §2, §3, §4
# RIPK2 = RIPK2 (Homo sapiens, UniProt O43353); assay: kinase Express Screen; type: biochemical
# Method: as §1, §2, §3, §4
# ROCK 2 = ROCK 2 (Homo sapiens, UniProt O75116); assay: kinase Express Screen; type: biochemical
# Method: as §1, §2, §3, §4
# SGK1 = SGK1 (Homo sapiens, UniProt O00141); assay: kinase Express Screen; type: biochemical
# Method: as §1, §2, §3, §4
# SYK = SYK (Homo sapiens, UniProt P43405); assay: kinase Express Screen; type: biochemical
# Method: as §1, §2, §3, §4
# SmMLCK = SmMLCK (Homo sapiens, UniProt Q15746); assay: kinase Express Screen; type: biochemical
# Method: as §1, §2, §3, §4
# Src = Src (Homo sapiens, UniProt P12931); assay: kinase Express Screen; type: biochemical
# Method: as §1, §2, §3, §4
# TAK1 = TAK1 (Homo sapiens, UniProt O43318); assay: kinase Express Screen; type: biochemical
# Chain of TAK1 (O43318 1-303 limits assumed): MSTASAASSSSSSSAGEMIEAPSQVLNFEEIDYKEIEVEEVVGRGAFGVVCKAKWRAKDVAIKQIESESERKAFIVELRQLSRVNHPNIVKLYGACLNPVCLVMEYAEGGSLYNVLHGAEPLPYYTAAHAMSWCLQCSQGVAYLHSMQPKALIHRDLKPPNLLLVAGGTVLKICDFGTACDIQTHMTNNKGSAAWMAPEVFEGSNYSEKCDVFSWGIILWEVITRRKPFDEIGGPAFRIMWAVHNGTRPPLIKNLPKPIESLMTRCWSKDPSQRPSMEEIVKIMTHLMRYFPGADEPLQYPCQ
# Method: as §1, §2, §3, §4
# TBK1 = TBK1 (Homo sapiens, UniProt Q9UHD2); assay: kinase Express Screen; type: biochemical
# Method: as §1, §2, §3, §4
# TTK = TTK (Homo sapiens, UniProt P33981); assay: kinase Express Screen; type: biochemical
# Method: as §1, §2, §3, §4
# VEG-FR = VEG-FR (Homo sapiens, UniProt P17948); assay: kinase Express Screen; type: biochemical
# Chain of VEG-FR (P17948 27-1338): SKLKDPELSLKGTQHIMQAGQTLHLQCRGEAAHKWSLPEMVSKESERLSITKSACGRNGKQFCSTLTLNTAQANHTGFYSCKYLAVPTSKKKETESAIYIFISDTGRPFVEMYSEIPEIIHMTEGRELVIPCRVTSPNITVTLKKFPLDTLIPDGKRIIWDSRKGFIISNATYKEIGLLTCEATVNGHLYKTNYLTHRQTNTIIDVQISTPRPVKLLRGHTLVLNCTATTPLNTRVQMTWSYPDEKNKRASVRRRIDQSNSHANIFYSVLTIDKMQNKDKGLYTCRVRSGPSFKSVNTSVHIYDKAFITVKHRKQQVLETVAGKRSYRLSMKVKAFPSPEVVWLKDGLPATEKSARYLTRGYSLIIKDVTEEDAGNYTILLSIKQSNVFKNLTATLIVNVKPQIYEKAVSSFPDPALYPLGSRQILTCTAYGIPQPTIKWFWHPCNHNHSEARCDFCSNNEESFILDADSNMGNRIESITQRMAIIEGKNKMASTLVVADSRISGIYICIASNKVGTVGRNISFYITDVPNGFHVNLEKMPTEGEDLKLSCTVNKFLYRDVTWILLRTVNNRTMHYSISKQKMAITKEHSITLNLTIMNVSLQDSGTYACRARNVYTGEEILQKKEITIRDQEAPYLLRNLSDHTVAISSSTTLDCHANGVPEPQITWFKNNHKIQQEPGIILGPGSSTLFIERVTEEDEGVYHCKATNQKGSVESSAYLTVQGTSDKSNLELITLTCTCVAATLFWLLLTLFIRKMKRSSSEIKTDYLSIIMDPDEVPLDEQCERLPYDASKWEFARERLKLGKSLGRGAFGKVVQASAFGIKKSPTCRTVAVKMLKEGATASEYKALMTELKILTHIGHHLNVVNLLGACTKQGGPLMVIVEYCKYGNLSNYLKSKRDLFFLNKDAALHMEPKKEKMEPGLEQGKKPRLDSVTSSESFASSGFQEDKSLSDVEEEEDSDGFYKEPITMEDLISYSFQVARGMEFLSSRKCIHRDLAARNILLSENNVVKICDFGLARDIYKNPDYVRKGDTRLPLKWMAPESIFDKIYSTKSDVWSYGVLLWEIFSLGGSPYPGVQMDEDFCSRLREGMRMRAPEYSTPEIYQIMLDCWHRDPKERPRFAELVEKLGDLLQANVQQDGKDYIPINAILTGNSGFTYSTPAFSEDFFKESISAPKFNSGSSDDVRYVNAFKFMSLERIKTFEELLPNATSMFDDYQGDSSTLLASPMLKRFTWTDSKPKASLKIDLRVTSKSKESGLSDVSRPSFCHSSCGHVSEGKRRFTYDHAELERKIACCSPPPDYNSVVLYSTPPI
# Method: as §1, §2, §3, §4
# p38a MAPK = p38a MAPK (Homo sapiens, UniProt Q16539); assay: kinase Express Screen; type: biochemical
# Method: as §1, §2, §3, §4
# D1 (h) = D1 (h) (Homo sapiens, UniProt P21728); assay: CEREP ExpresSProfile; details: read-out: Mean % of control specific binding (±SD)
# NTS1 (NT1) (h) = NTS1 (NT1) (h) (Homo sapiens, UniProt P30989); assay: CEREP ExpresSProfile; details: read-out: Mean % of control specific binding (±SD)
# 5-HT2A (h) = 5-HT2A (h) (Homo sapiens, UniProt P28223); assay: CEREP ExpresSProfile; details: read-out: Mean % of control specific binding (±SD)
# Excerpt: (§5) Receptor Reference Compound Mean % of control specific
# Receptor & Ion-Channel Screening
# CEREP ExpresSProfile panel
# alpha 2 (non-selective) = assay: CEREP ExpresSProfile; type: binding; details: 1 µM
# 5-HT3 (h) = 5-HT3 (h) (Homo sapiens, UniProt P46098); assay: CEREP ExpresSProfile; details: read-out: Mean % of control specific binding (±SD)
# Excerpt: as §5
# Receptor & Ion-Channel Screening
# CEREP ExpresSProfile panel
# EP4 (h) = EP4 (h) (Homo sapiens, UniProt P35408); assay: CEREP ExpresSProfile; details: read-out: Mean % of control specific binding (±SD)
# dopamine transporter (h) = dopamine transporter (h) (Homo sapiens, UniProt Q01959); assay: CEREP ExpresSProfile; details: read-out: Mean % of control specific binding (±SD)
# Excerpt: as §5
# Receptor & Ion-Channel Screening
# CEREP ExpresSProfile panel
# MT1 (ML1A) (h) = MT1 (ML1A) (h) (Homo sapiens, UniProt P48039); assay: CEREP ExpresSProfile; type: binding
# Chain of MT1 (ML1A) (h) (P48039 whole entry): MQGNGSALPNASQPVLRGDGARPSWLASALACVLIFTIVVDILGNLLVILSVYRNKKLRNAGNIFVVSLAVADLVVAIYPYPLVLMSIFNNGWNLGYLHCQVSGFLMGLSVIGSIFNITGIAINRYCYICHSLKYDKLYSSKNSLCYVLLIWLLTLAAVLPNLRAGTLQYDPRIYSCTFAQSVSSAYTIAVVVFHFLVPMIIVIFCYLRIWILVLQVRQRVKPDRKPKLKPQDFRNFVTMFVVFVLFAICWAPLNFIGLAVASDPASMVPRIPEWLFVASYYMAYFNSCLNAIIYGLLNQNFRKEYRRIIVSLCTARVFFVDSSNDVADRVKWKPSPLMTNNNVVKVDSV
structure (smiles),measurement,setting,value
"COC(=O)[C@H](C)[C@@H]1N=C(c2ccc(Cl)cc2)c2ccc(OC)cc2-n2c(C)nnc21 [(2R,3S)-7]",remaining activity at 1 µM,BTK,96%
same,remaining activity at 1 µM,CAMK1,94%
same,remaining activity at 1 µM,CAMKKb,101%
same,remaining activity at 1 µM,CHK2,107%
same,remaining activity at 1 µM,CK1δ,93%
same,remaining activity at 1 µM,CK2,97%
same,remaining activity at 1 µM,DYRK1A,80%
same,remaining activity at 1 µM,EF2K,97%
same,remaining activity at 1 µM,EPH-A2,86%
same,remaining activity at 1 µM,GSK3b,95%
same,remaining activity at 1 µM,IRAK4,114%
same,remaining activity at 1 µM,JAK3,95%
same,remaining activity at 1 µM,JNK1,89%
same,remaining activity at 1 µM,MARK3,94%
same,remaining activity at 1 µM,MSK1,94%
same,remaining activity at 1 µM,MST2,118%
same,remaining activity at 1 µM,NEK6,109%
same,remaining activity at 1 µM,PDK1,97%
same,remaining activity at 1 µM,PIM1,106%
same,remaining activity at 1 µM,PKCa,96%
same,remaining activity at 1 µM,PKD1,78%
same,remaining activity at 1 µM,PLK1,89%
same,remaining activity at 1 µM,PRK2,100%
same,remaining activity at 1 µM,RIPK2,103%
same,remaining activity at 1 µM,ROCK 2,88%
same,remaining activity at 1 µM,SGK1,103%
same,remaining activity at 1 µM,SYK,98%
same,remaining activity at 1 µM,SmMLCK,112%
same,remaining activity at 1 µM,Src,82%
same,remaining activity at 1 µM,TAK1,108%
same,remaining activity at 1 µM,TBK1,98%
same,remaining activity at 1 µM,TTK,102%
same,remaining activity at 1 µM,VEG-FR,89%
same,remaining activity at 1 µM,p38a MAPK,101%
same,remaining activity at 1 µM,D1 (h),116%
same,remaining activity at 1 µM,NTS1 (NT1) (h),106%
same,remaining activity at 1 µM,5-HT2A (h),100%
same,Mean % of control specific binding (±SD),alpha 2 (non-selective),98 (0) %
same,remaining activity at 1 µM,5-HT3 (h),96%
same,remaining activity at 1 µM,EP4 (h),93%
same,remaining activity at 1 µM,dopamine transporter (h),84%
same,inhibition at 1 µM,MT1 (ML1A) (h),77%
same,remaining activity at 1 µM,MT1 (ML1A) (h); read-out: Mean % of control specific binding (±SD),23%

# Source: article PMC5909127, “Optimization of a “bump-and-hole” approach to allele-selective BET bromodomain inhibition” (Chemical Science, 2018)
